Measurements from patent US20210220408A1, “ARYL HYDROCARBON RECEPTOR ANTAGONISTS AND METHODS OF USE” (Magenta Therapeutics Inc., priority 2018, published 2021).

Target: T1, aryl hydrocarbon receptor (AHR) (Homo sapiens, UniProt P35869)
T1 sequence (P35869 11-848): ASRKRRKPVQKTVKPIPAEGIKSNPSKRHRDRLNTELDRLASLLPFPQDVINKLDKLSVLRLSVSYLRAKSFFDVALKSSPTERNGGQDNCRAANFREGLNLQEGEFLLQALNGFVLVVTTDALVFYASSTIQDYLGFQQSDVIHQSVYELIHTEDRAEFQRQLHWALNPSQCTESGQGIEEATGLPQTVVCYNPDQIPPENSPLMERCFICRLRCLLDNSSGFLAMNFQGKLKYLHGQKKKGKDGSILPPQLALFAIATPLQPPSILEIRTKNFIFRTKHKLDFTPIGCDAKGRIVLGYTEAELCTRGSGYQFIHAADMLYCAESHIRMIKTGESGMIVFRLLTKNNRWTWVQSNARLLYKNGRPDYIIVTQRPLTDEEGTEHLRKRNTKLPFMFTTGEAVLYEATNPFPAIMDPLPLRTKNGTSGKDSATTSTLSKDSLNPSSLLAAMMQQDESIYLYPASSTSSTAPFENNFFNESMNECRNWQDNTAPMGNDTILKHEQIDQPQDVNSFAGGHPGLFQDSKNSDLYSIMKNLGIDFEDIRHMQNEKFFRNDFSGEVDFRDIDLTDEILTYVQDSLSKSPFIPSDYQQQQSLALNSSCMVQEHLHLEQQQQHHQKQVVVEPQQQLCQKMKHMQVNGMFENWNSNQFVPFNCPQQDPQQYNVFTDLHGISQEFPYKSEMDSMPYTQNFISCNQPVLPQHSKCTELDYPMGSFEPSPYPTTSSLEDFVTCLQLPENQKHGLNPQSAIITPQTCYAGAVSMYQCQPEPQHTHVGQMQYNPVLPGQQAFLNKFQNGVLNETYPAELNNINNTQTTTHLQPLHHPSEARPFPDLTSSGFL
Test: DRE-Luciferase reporter high-throughput screen (AHR antagonist, VAF347-activated)
From the text: HepG2 hepatocellular carcinoma cells were transfected with a dioxin-response element (DRE) Firefly luciferase reporter construct. Luciferase transcription was activated with the aryl hydrocarbon receptor (AHR) agonist, VAF347. Addition of an AHR antagonist results in inhibition of the luciferase transcription and a loss of signal in the assay.
HepG2, a hepatocellular carcinoma cell line, was transfected with the dioxin-response element Firefly luciferase reporter construct using the TransIT-transfection system. Prior to transfection, HepG2 cells (Sigma) were cultured at 90% confluency in Eagle's Modified Essential Medium (Sigma)+2 mM Glutamine (Sigma), +1^% Non Essential Amino Acids (Sigma)+10% Fetal Bovine Serum (Hyclone) and harvested and counted (Biorad TC20 cell counter). OptilMEM serum-free media and TransIT (Mirus) were mixed for transfection in 150 mm dishes by adding 240 μL Transit to 3.0 mL OptiMEM, vortexing briefly to mix, and incubating at room temperature for 20 minutes. The DNA mixture was prepared by adding 80 μg plasmid (pGudLuc6.1 plasmid, Garrison et al., (1996) Fundam. Appl. Toxicol., 30, 194-203), inverting to mix, and incubating at room temperature for 30 minutes. 30×10^6 HepG2 cells were seeded in 30 mL media and 3.3 mL of the DNA, OptiMEM, and TransIT mixture was added dropwise to the plate. The plate was mixed by rocking and incubated at 37° C./5% CO2 overnight. The next day, cells were harvested by aspirating media, washing once with sterile phosphate buffered saline (PBS, Gibco), trypsinzing with 0.05% Trypsin (Corning) and harvesting cells with culture medium, and freezing with Cell Freezing Media (Gibco) at 5 50×10^6 cells/vial in 1 mL/vial.
Transiently-transfected frozen HepG2 cells with DRE-Luciferase, were thawed in a 37° C. water bath and resuspended in complete media. 4 μL cells at 15,000 cells per well was transferred into the wells of a 1536-well Alphaplate assay plate (PerkinElmer) using TEMPEST liquid dispenser. The plate was centrifuged at 1000 rpm for 1 minute. 30 nL of the controls (1 μM (S)-2-(6-((2-(1H-indol-3-yl)ethyl)amino)-2-(5-fluoropyridin-3-yl)-9H-purin-9-yl)propan-1-ol or 100% DMSO) were transferred to the assay plate using the Pin Tool on BRAVO. 1 μL of VAF347 (15 nM final concentration) in complete media was added to the wells using TEMPEST. The plate was centrifuged at 1000 rpm for 1 minute and incubated at 37° C./5% CO2 overnight. After incubation, the plate was removed from the incubator and brought to room temperature. 2 μL of room temperature Steady-Glo luciferase detection reagent (Promega) was added to the wells with TEMPEST. The plate was centrifuged at 2000 rpm for 1 minute, sealed with clear plastic seal and kept at room temperature for 15 minutes prior to measuring luminescence on ENVISION.
Approximately 166,000 compounds were screened in 132 1536-well plates in the luciferase reporter gene assay at a final concentration of 12 μM. […] Each compound was tested at 0.1 μM, 1.0 μM, and 10 μM in the DRE luciferase assay and Cell Titer Glo cytotoxicity assay (Promega). […] 512 compounds were selected for 10-point dose-response in the AHR luciferase reporter assay and the Cell Titer Glo cytotoxicity assay.

Row | SMILES | IC50 [µM]
1 | COc1ccc(-c2cc3ncc(-c4ccccc4)c(N)n3n2)cc1 [118A] | 1 to 2
2 | CC(=O)c1sc(-c2ccc(Oc3ncnc4sccc34)cc2)nc1C [64A] | 1 to 2
3 | Cn1ccc(NC(=O)c2cc(-c3cccc(Cl)c3)[nH]n2)n1 [31A] | > 2
4 | N#Cc1c(-c2ccc(Br)cc2)csc1N1CCCCC1 [150A] | > 2
5 | O=C(NC1CC1)c1cnc(-c2noc3ccccc23)s1 [61A] | 1 to 2
6 | COc1ccnc(N2CCN(c3ccc(Cl)cc3)CC2)c1C#N [compound 80] | < 0.2
7 | Cc1nc2nc(SCc3ccc(Cl)cc3)nn2c(C)c1Cl [74B] | 1 to 2
8 | O=C(CNC1=NS(=O)(=O)c2ccccc21)OCc1cn(-c2ccccc2)nc1-c1ccccc1 [58B] | > 2
9 | CN1CCN(c2nc(-c3cc(F)ccc3F)cs2)CC1 [56A] | > 2
10 | COC(=O)C1=C(C)Nc2nc(-c3ccccc3)nn2C1c1cccnc1 (stereo not drawn) [126A] | 1 to 2
11 | COC(=O)c1cnn(-c2cc(Nc3c(F)cccc3F)ncn2)c1N [compound 86] | 0.2 to 0.5
12 | Cc1nc(N2CCN(c3ccccc3F)CC2)nc2c1C(=O)CCC2 [77A] | 1 to 2
13 | N#Cc1ccc(-c2csc(-c3ccsc3)n2)cc1 [33B] | 0.2 to 0.5
14 | COc1ccccc1C(=O)Nc1c(C)cc(C)c2cccnc12 [27B] | 1 to 2
15 | Cc1c(COc2ccccc2C#N)cccc1[N+](=O)[O-] [88B] | 0.2 to 0.5
16 | COc1cccc(-c2cc(C(F)(F)F)nc(-n3cc(Cl)cn3)n2)c1 [86A] | 1 to 2
17 | Cn1nc(N2CCN(c3ccccc3Cl)CC2)c(=O)n(C)c1=O [42B] | 0.2 to 0.5
18 | Clc1ccc(Nc2nnc(-c3ccncc3)s2)cc1 [98B] | 1 to 2
19 | CCC(=O)N1CCc2nc(-c3ccccc3)sc2C1 [compound 147] | 0.5 to 1
20 | CCNC(=O)c1sc2ncc(C(=O)c3ccc(C)cc3)n2c1C [compound 66] | 0.2 to 0.5
21 | COc1cccc2c1cc1c(O)nnc(C)n12 [185A] | > 2
22 | O=C(Nc1ccc(-c2cnco2)cc1)c1ccc(F)cc1F [3B] | 0.2 to 0.5
23 | CS(=O)(=O)c1csc(C(=O)Nc2cccc(Cl)c2)c1Cl [18B] | > 2

Row | SMILES | IC50 [µM]
24 | N#Cc1cnc2c(-c3ccc(Cl)cc3)cnn2c1 [70B] | 0.5 to 1
25 | CCOc1ccc(-c2ccc(SCC)nn2)cc1 [90A] | > 2
26 | c1ccc(-c2nc(CSc3nncn3-c3ccccc3)co2)cc1 [133A] | 1 to 2
27 | CC(=O)Nc1ccc(NC(=O)c2cccc3c2OCC3)cc1 [43A] | 1 to 2
28 | CCOC(=O)c1ccc(Nc2nc(=O)c3cccnc3s2)cc1 [196A] | > 2
29 | c1ccc(-c2ccc(OCc3cn4ccsc4n3)cc2)cc1 [96A] | 1 to 2
30 | Cc1nnc(Oc2ccc(Cl)cc2Cl)c2ccccc12 [159A] | 1 to 2
31 | Cc1c(C(N)=O)nnc2cc(-c3ccccc3)nn12 [75B] | 1 to 2
32 | Cc1c(-c2cc(NC(=O)C3CC3)[nH]n2)sc2ccc(Cl)cc12 [105A] | > 2
33 | Cc1nc(-c2ccc(OC3=CC=C4N=NC(C(F)(F)F)N4N3)cc2)no1 (stereo not drawn) [124A] | > 2
34 | FC(F)(F)c1cccc(Nc2nc3ccccc3[nH]2)c1 [114A] | 1 to 2
35 | Clc1ccc2nnn(OCc3cn4cc(Cl)ccc4n3)c2c1 [116A] | > 2
36 | O=C(Nc1cc2c(s1)CCCC2)c1ccccc1 [21B] | 1 to 2
37 | Fc1ccc(-c2cc(N3CCCCC3)on2)cc1 [81B] | > 2
38 | Clc1ccccc1CNc1ccc(-c2nc3ncccc3o2)cc1 [172A] | 1 to 2
39 | COc1ccc(NC(=O)c2ccc(C(F)(F)F)[nH]c2=O)cn1 [18A] | > 2
40 | c1cncc(-c2nnc3sc(-c4csc5c4CCCC5)nn23)c1 [99A] | 1 to 2
41 | N#Cc1c(NC(=O)c2cnn3cccnc23)sc2c1CCC2 [32B] | 1 to 2
42 | O=C(Nc1cccc(Cl)c1)c1ccc(-n2cccn2)c([N+](=O)[O-])c1 [4A] | 1 to 2
43 | CCc1nnc(-c2ccc(NC(=O)c3ccccc3OC)cc2)o1 [3A] | 1 to 2
44 | Cc1ccc(C(=O)Nc2cc(C(C)(C)C)on2)cc1 [25A] | > 2
45 | C(#Cc1ccc(-c2ccn[nH]2)cc1)c1ccccc1 [103A] | 1 to 2
